Test results published in patent US6495683B2, “4-oxo-4,7-dihydro-thieno[2,3-b]pyridine-5-carboxamides as antiviral agents” (Pharmacia and Upjohn Company, priority 1999, dated 2002).
pIC50: −log10 of the molar value. Counter-ions that a name gives are not always drawn. Like-named read-outs stand apart in the source and are kept apart here.

Key:
[1] = target: T1, HCMV polymerase (Human cytomegalovirus, UniProt P08546); assay: biochemical; settings: for IC50: modified SPA assay: compounds diluted in 100% DMSO, 4.5 mM DTT in polymerase buffer, read-out: polymerase IC50 (μM) HCMV
T1 construct: made in house; host or cells: recombinant baculovirus-infected SF-9 cells
Procedure: The HCMV polymerase assay is performed using a scintillation proximity assay (SPA) as described in several references, such as N. D. Cook, et al., Pharmaceutical Manufacturing International, pages 49-53 (1992); K. Takeuchi, Laboratory Practice, September issue (1992); U.S. Pat. No. 4,568,649 (1986); which are incorporated by reference herein. Reactions are performed in 96-well plates. The assay is conducted in 100 μl volume with 5.4 mM HEPE (pH 7.5), 11.7 mM KCl, 4.5 mM MgCl2, 0.36 mg/ml BSA, and 90 nM ^3H-dTTP. Assays are run with and without CHAPS, (3-[(3-cholamidopropyl)-dimethylammonio]-1-propane-sulfonate) at a final concentration of 2 mM. HCMV polymerase is diluted in enzyme dilution buffer containing 50% glycerol, 250 mM NaCl, 10 mM HEPES (pH 7.5), 100 μg/ml BSA, and 0.01% sodium azide. The HCMV polymerase, which is expressed in recombinant baculovirus-infected SF-9 cells and purified according to literature procedures, is added at 10% (or 10 μl) of the final reaction volume, i.e., 100 μl. Compounds are diluted in 50% DMSO and 10 μl are added to each well. Control wells contain an equivalent concentration of DMSO. Unless noted otherwise, reactions are initiated via the addition of 6 nM biotinylated poly(dA)-oligo(dT) template/primer to reaction mixtures containing the enzyme, substrate, and compounds of interest. Plates are incubated in a 25 C or 37 C H2O bath and terminated via the addition of 40 μl/reaction of 0.5 M EDTA (pH 8) per well. Reactions are terminated within the time-frame during which substrate incorporation is linear and varied depending upon the enzyme and conditions used, i.e., 30 min. for HCMV polymerase. Ten μl of streptavidin-SPA beads (20 mg/ml in PBS/10% glycerol) are added following termination of the reaction. Plates are incubated 10 min. at 37 ° C., then equilibrated to room temperature, and counted on a Packard Topcount. Linear regressions are performed and IC50's are calculated using computer software.
A modified version of the above HCMV polymerase assay is performed as described above, but with the following changes: Compounds are diluted in 100% DMSO until final dilution into assay buffer. In the previous assay, compounds are diluted in 50% DMSO. 4.5 mM dithiothreotol (DTT) is added to the polymerase buffer.

T1 sequence (P08546 whole entry): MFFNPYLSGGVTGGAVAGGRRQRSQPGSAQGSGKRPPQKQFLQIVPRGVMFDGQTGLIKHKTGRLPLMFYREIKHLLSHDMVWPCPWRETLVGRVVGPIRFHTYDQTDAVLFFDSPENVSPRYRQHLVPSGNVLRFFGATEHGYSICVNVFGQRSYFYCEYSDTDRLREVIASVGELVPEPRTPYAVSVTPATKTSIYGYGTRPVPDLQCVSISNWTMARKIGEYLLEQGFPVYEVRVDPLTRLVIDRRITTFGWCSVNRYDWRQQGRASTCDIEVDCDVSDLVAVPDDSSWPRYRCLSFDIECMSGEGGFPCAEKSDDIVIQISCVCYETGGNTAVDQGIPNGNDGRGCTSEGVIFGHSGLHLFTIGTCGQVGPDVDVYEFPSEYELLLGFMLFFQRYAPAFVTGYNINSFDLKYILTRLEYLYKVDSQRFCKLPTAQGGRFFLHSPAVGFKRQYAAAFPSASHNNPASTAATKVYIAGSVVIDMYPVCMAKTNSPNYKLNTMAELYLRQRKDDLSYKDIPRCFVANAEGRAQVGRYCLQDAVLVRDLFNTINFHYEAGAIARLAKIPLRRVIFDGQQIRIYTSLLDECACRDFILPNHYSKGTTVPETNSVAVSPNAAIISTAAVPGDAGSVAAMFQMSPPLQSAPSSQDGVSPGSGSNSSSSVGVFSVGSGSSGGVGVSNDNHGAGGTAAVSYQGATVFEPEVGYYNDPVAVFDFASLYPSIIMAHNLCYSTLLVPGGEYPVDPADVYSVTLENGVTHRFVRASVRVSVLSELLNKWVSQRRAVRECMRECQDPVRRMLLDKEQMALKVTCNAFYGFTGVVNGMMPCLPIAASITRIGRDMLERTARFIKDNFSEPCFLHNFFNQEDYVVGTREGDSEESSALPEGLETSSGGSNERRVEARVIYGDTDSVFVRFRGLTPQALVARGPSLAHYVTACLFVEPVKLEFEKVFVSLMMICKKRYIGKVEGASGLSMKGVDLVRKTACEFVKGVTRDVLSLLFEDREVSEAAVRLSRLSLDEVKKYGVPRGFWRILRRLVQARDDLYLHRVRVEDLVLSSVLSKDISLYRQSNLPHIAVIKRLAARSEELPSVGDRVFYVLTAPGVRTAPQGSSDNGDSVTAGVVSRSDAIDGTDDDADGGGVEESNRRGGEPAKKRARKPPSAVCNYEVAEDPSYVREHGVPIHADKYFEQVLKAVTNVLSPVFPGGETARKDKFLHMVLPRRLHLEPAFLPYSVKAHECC

IC50 [1] [µM]	melting point	SMILES	pIC50 [1]
2.6	214 to 216 °C	Cn1cc(C(=O)NCc2ccc(F)cc2)c(=O)c2cc(CN3CCOCC3)sc21 [Example 45, N-(4-Fluorobenzyl)-7-methyl-2-(4-morpholinylmethyl)-4-oxo-4,7-dihydrothieno[2,3-b]pyridine-5-carboxamide]	–
18.5	222 to 225 °C	Cn1cc(C(=O)NCc2ccc(Cl)cc2)c(=O)c2cc(CO)sc21 [Example 35, N-(4-Chlorobenzyl)-2-(hydroxymethyl)-7-methyl-4-oxo-4,7-dihydrothieno[2,3-b]pyridine-5-carboxamide]	–
3.2	214 to 215 °C	O=C(NCc1ccc(Cl)cc1)c1cn(Cc2cccnc2)c2sc(CN3CCOCC3)cc2c1=O [Example 54, N-(4-Chlorobenzyl)-2-(4-morpholinylmethyl)-4-oxo-7-(3-pyridinylmethyl)-4,7-dihydrothieno[2,3-b]pyridine-5-carboxamide]	–
> 50	147 to 150 °C	CCn1cc(C(=O)NCc2ccc(Cl)cc2)c(=O)c2cc(C#CCOC(=O)c3cccc(CN4CCOCC4)c3)sc21 [Example 32, 3-(5-{[(4-Chlorobenzyl)amino]carbonyl}-7-ethyl-4-oxo-4,7-dihydrothieno[2,3-b]pyridin-2-yl)-2-propynyl 3-(4-Morpholinylmethyl)benzoate]	–
34.3	197 to 198 °C	COC(=O)C(CC#Cc1cc2c(O)c(C(=O)NCc3ccc(Cl)cc3)cnc2s1)C(=O)OC [Example 10, Dimethyl 2-[3-(5-{[(4-Chlorobenzyl)amino]carbonyl}-4-hydroxythieno[2,3-b]pyridin-2-yl)-2-propynyl]malonate]	–
12.5	–	N#Cc1cc2c(O)c(C(=O)NCc3ccc(Cl)cc3)cnc2s1 [Example 9, N-(4-Chlorobenzyl)-2-cyano-4-hydroxythieno[2,3-b]pyridine-5-carboxamide]	–
5.8	215 to 218 °C	COCC#Cc1cc2c(O)c(C(=O)NCc3ccc(Cl)cc3)cnc2s1 [Example 6, N-(4-Chlorobenzyl)-4-hydroxy-2-(3-methoxy-1-propynyl)-thieno[2,3-b]pyridine-5-carboxamide]	–
15.9	> 300 °C	O=C(NCc1ccc(Cl)cc1)c1cnc2sc(S(=O)(=O)N3CCOCC3)cc2c1O [Example 3, N-(4-Chlorobenzyl)-4-hydroxy-2-(4-morpholinylsulfonyl)-thieno[2,3-b]pyridine-5-carboxamide]	–
0.67	144 to 146 °C	CCn1cc(C(=O)NCc2ccc(Cl)cc2)c(=O)c2cc(CCCO)sc21 [Example 16, N-(4-Chlorobenzyl)-7-ethyl-2-(3-hydroxypropyl)-4-oxo-4,7-dihydrothieno [2,3-b] pyfidine-5-carboxamide]	–
–	212 to 214 °C (dec.)	CCN(CC)CCn1cc(C(=O)NCc2ccc(Cl)cc2)c(=O)c2cc(C#CCO)sc21 (as salt: hydrochloride) [Example 18, N-(4-Chlorobenzyl)-7-[2-(diethylamino)ethyl]-2-(3hydroxy-1-propynyl)4-oxo4,7-dihydrothieno[2,3-b]pyridine-5-carboxamide hydrochloride]	–
0.18	136 to 139 °C	CCn1cc(C(=O)NCc2ccc(Cl)cc2)c(=O)c2cc(CCCCO)sc21 [Example 20, N-(4-Chlorobenzyl)-7-ethyl-2-(4-hydroxybutyl)4-oxo-4,7-dihydrothieno[2,3-b]pyridine-5-carboxamide]	–
2.9	236 to 237 °C	Cn1cc(C(=O)NCc2ccc(Cl)cc2)c(=O)c2cc(I)sc21 [Example 23, N-(4-Chlorobenzyl)-2-iodo-7-methyl-4-oxo-4,7-dihydrothieno[2,3-b]pyridine-5-carboxamide]	–
14.2	173 to 180 °C	CC(C)n1cc(C(=O)NCc2ccc(Cl)cc2)c(=O)c2cc(I)sc21 [Example 26, N-(4-Chlorobenzyl)-2-iodo-7-isopropyl-4-oxo-7-3dihydrothiedion[2,3-b]pyridine-5-carboxamide]	–
9	214 to 218 °C	CCn1cc(C(=O)NCc2ccc(Cl)cc2)c(=O)c2cc(I)sc21 [Example 13, N-(4-Chlorobenzyl)-7-ethyl-2-iodo-4-oxo-4,7-dihydrothieno[2,3-b]pyridine-5-carboxamide]	–
6.5	180 to 182 °C	CCn1cc(C(=O)NCc2ccc(Cl)cc2)c(=O)c2cc(C#CCOC(=O)CCC(=O)O)sc21 [Example 29, 4-{[3-(5-{[(4-Chlorobenzyl)amino]carbonyl}-7-ethyl-4-oxo-4,7-dihydrothieno[2,3-b]pyridin-2-yl)-2-propynyl]oxy}-4-oxobutanoic Acid]	–
2.4	84 to 92 °C	CC(C)n1cc(C(=O)NCc2ccc(Cl)cc2)c(=O)c2cc(CCCO)sc21 [Example 28, N-(4-Chlorobenzyl)-2-(3-hydroxypropyl)-7-isopropyl-4-oxo4,7-dihydrothieno[2,3-b]pyridine-5-carboxamide]	–
22.4	238 to 240 °C	COC(=O)c1cc2c(O)c(C(=O)NCc3ccc(Cl)cc3)cnc2s1 [Example 33, Methyl 5-{[(4-Chlorobenzyl)amino]carbonyl}-4-hydroxythieno[2,3-b]pyridine-2-carboxylate]	–
6.3	231 to 232 °C (dec.)	O=C(NCc1ccc(Cl)cc1)c1cnc2sc(I)cc2c1O [Example 2, N-(4-Chlorobenzyl)-4-hydroxy-2-iodothieno[2,3-b]pyridine-5-carboxamide]	–
1	206 to 208 °C	Cn1cc(C(=O)NCc2ccc(Cl)cc2)c(=O)c2cc(C#CCO)sc21 [Example 24, N-(4-Chlorobenzyl)-2-(3-hydroxy-1-propynyl)-7-methyl-4-oxo-4,7-dihydrothieno[2,3-b]pyridine-5-carboxamide]	–
4.7	191 to 195 °C	CC(C)n1cc(C(=O)NCc2ccc(Cl)cc2)c(=O)c2cc(CN3CCOCC3)sc21 [Example 44, N-(4-Chlorobenzyl)-7-isopropyl-2-(4-morpholinylmethyl)-4-oxo-4,7-dihydrothieno[2,3-b]pyridine-5-carboxamide]	–
0.86	230 to 235 °C (dec.)	O=C(O)Cn1cc(C(=O)NCc2ccc(Cl)cc2)c(=O)c2cc(C#CCO)sc21 [Example 19, 2-[5-{[(4-Chlorobenzyl)amino]carbonyl}-2-(3-hydroxy-1-propynyl)4-oxothieno[2,3-b]pyridin-7(4H)-yl]acetic Acid]	–
–	171 to 172 °C	CCn1cc(C(=O)NCc2ccc(Cl)cc2)c(=O)c2cc(C#CCOC(=O)C(N)C(C)C)sc21 (stereo not drawn) (as salt: hydrochloride) [Example 31, 3-(5-{[(4-Chlorobenzyl)amino]carbonyl}-7-ethyl-4-oxo-4,7-dihydrothieno[2,3-b]pyridin-2-yl)-2-propynyl 2-Amino-3-methylbutanoate Hydrochloride]	–
< 0.31	187 °C	CN(Cc1cc2c(=O)c(C(=O)NCc3ccc(Cl)cc3)cn(C)c2s1)CC(O)c1ccc(O)cc1 (stereo not drawn) [Example 39, N-(4-Chlorohenzyl)-2-(((2-hydroxy-2-(4-hydroxyphenyl)ethyl)(methyl)amino)methyl)-7-methyl-4-oxo-4,7-dihydrothieno[2,3-b]pyridine-5-carboxamide]	–
3.2	225 to 226.5 °C	O=C(NCc1ccc(Cl)cc1)c1cn(Cc2ccccc2)c2sc(CN3CCOCC3)cc2c1=O [Example 49, 7-Benzyl-N-(4-chlorobenzyl)-2-(4-morpholinylmethyl)-4-oxo-4,7-dihydrothieno[2,3-b]pyridine-5-carboxamide]	–
15.4	–	CCn1cc(C(=O)NCc2ccc(Cl)cc2)c(=O)c2cc(C#CCOC(=O)C(N)C(C)C)sc21 (stereo not drawn) [Example 31, 3-(5-{[(4-Chlorobenzyl)amino]carbonyl}-7-ethyl-4-oxo-4,7-dihydrothieno[2,3-b]pyridin-2-yl)-2-propynyl 2-Amino-3-methylbutanoate Hydrochloride]	–

SMILES	IC50 [1] [µM]	melting point	pIC50 [1]
O=C(NCc1ccc(Cl)cc1)c1cnc2sc(CN3CCOCC3)cc2c1O [Example 41, N-(4-Chlorobenzyl)-4-hydroxy-2-(4-morpholinylmethyl)-thieno[2,3-b]pyridine-5-carboxamide]	–	193 to 195 °C	5.47
